We go through three compounds from patent publication US12064517B1, “Polymer nanoparticle” (priority 2018, dated 2024).

In data set [1] the test system is Human Lung Carcinoma A549. Put plainly: Cell Titer-Glo Luminescent Cell Viability assay, antiproliferative activity, A549. It counts as cell-based. The following applies: A549 cell line, 72 hours culture with test article, highest concentration 0.4 μM. As for the experimental part:
(§1) The antiproliferative activity was studied against human tumor cell lines, Human Lung Carcinoma A549 and Human Mammary Gland Adenocarcinoma MCF-7 with Promega's Cell Tier-Glo® Luminescent Cell Viability assay.
(§2) A preliminary cell titration was conducted to select the proper seeding density for the growth of these lines for the relevant time frames.
(§3) The tumor cells were seeded in a volume of 90 μL/well of growth medium into a white polystyrene 96-well microculture plate (Corning® Costar® 96-well flat bottom plate, Cat #3917). After 24 hours of incubation in a humidified incubator at 37° C., in an atmosphere of 5% CO2 and 95% air, 10 μL of 10 serially diluted test agent in growth medium were added to each well in duplicate (10 points dose response, highest concentration 0.4 μM, with a 1:2 dilution plus untreated control). After 72 hours of culture with test article, in a humidified incubator at the atmosphere of 5% CO2 and 95% air, the plate cells and Cell Titer-Glo® (Promega G7571) reagents were brought to room temperature to equilibrate for 30 minutes. 100 μL of Cell Titer-Glo® (Promega G7571) reagent was added to each well. The plates were shaken for two minutes and then left to equilibrate for ten minutes prior to reading luminescence on the Biotech Synergy II microplate reader. The IC50 results are listed in the following tables and are shown in graphs in FIG. 5 and FIG. 6.
(In ATP-based viability assays light output follows the ATP content of the culture.)

For data set [2], the system named is Human Mammary Gland Adenocarcinoma MCF-7. Put plainly: Cell Titer-Glo Luminescent Cell Viability assay, antiproliferative activity, MCF-7. Type of data set: cell-based. The following applies: MCF7, MCF-7 cell line, 72 hours culture with test article, highest concentration 0.4 μM. Here is the method:
as §1, §2, §3

Data set [3] in a line: Encapsulation of purpurin dye in nanogel, aqueous dispersion. The following applies: 2 mg purpurin, 6 mg PEG diacrylate (MW 1000) β-cyclodextrin crosslinked nanogel, 3 ml di water, stirring overnight. Type of data set: physicochemical. Here is the method:
6 mg of PEG diacrylate (MW 1000) β-cyclodextrin crosslinked nanogel was dispersed in 3 ml of di water, 2 mg of purpurin solid was added to the solution. The resulted mixture was stirring overnight.

The conditions of data set [4]: native cyclodextrin; cited from earlier work.

Usually IC50 stands for the concentration at which inhibition is half-maximal.

With `CC(=O)O[C@H]1C(=O)[C@@]2(C)[C@H]([C@H](OC(=O)c3ccccc3)[C@]3(O)C[C@H](OC(=O)[C@H](O)[C@@H](NC(=O)c4ccccc4)c4ccccc4)C(C)=C1C3(C)C)[C@]1(OC(C)=O)CO[C@@H]1C[C@@H]2O` [Paclitaxel Control, paclitaxel], the IC50 in data set [1] was 5.98 nM; in data set [2], 1.06 nM.

As to `O=C1c2ccccc2C(=O)c2c(O)c(O)cc(O)c21` [purpurin], the “Aqueous dispersion of purpurin with nanogel” value in data set [3] is “dispersed in the aqueous as a transparent colloidal solution”.

Turning to `OC[C@H]1O[C@@H]2O[C@H]3[C@H](O)[C@@H](O)[C@@H](O[C@H]4[C@H](O)[C@@H](O)[C@@H](O[C@H]5[C@H](O)[C@@H](O)[C@@H](O[C@H]6[C@H](O)[C@@H](O)[C@@H](O[C@H]7[C@H](O)[C@@H](O)[C@@H](O[C@H]1[C@H](O)[C@H]2O)O[C@@H]7CO)O[C@@H]6CO)O[C@@H]5CO)O[C@@H]4CO)O[C@@H]3CO` [α-cyclodextrin], the solubility in data set [4] is 129.5 g/kg.
